In patent US7888319B2, “Compositions and methods for promoting wound healing and tissue regeneration” (MUSC Foundation for Research Development, priority 2004, dated 2011):
Ends that are not written are not given here.

Tested on: 5 mm diameter excisional skin wounds
Experiment: Small (5 mm) excisional skin wounds in adult mice, ACT 1 to ACT 5
Type: in vivo, mouse
Method: Anesthetized adult mice had 2 small (5 mm diameter) excisional skin wounds made by fine surgical scissors on the neck and (upper) back. The boundaries of the injuries were demarcated by a 5 mm wide circular template cut in a plastic sheet. 50-60 μl of a solution of 20% pluronic gel containing either no (control) or one of the ACT peptides (ACT 2-SEQ ID NO: 1, ACT 1-SEQ ID NO:2, ACT 3-SEQ ID NO:3, ACT 4-SEQ ID NO:4, ACT 5-SEQ ID NO:5) dissolved at concentrations of 100 μM were then applied to the excisional injuries. Control or ACT peptide-containing gel was applied subsequently 24 hours after the initial application. No further applications of control and ACT peptide-containing gel were made after the second application. […] Note that the same wound on the same animal is shown at the different time points during the healing time course. Anesthetized adult mice had 2 small (5 mm diameter) excisional skin wounds made by fine surgical scissors on the neck and (upper) back. The boundaries of the injuries were demarcated by a 5 mm wide circular template cut in a plastic sheet. 50-60 μl of a solution of 30% pluronic gel containing either no (control) or one of the ACT peptides (ACT 2—SEQ ID NO:1, ACT 1—SEQ ID NO:2, ACT 3—SEQ ID NO:3, ACT 4—SEQ ID NO:4, ACT 5—SEQ ID NO:5) dissolved at concentrations of 100 μM were then applied to the excisional injuries. Control or ACT peptide-containing gels were applied subsequently 24 hours after the initial application. No further applications of control and ACT peptide-containing gel were made after the second application. […] Note that the same wound on the same animal is shown at the different time points during the healing time course. The area of open wound was measured during the time course using NIH image according to standard protocols on multiple (˜5 mice per control or treatment condition) adult mice. These individual area measurements were then normalized to (i.e., divided by) the average area measured for the control injuries for a given time point, multiplied by 100 to give a % of unclosed wound relative to the control and then plotted against time. A Mann-Whitney U-test was used to statistically assess the effects of ACT peptides over the time course. […] These treatments provided results with significant p values.

Q: With “RPRPDDLEI (not fully specified (N-terminus)) [ACT 1, carboxy-terminal 9 amino acids of human Cx43; amino terminus biotinylated in tests]” as the sequence, how does the “closure, inflammation, healing and scarring of injuries” value (100 μM in pluronic gel, 50-60 μl, applied at 0 and 24 hours, 240 hour time course (10 days), vs gel without peptide) read?
A: closed faster, were significantly less inflamed in appearance, healed faster and scarred less

Q: What about the “size of improvement in wound closure over the control, compared among peptides” value (100 μM, over the time course) of the same sequence?
A: most pronounced improvements over the control

Q: And the “wound closure rates (area of open wound as % of unclosed wound relative to the control)” value (100 μM, ~5 mice per condition, Mann-Whitney U-test over the time course)?
A: significantly improved wound closure rates
